The values that follow are results of earlier work, collected in patent US20210379103A1, “ANISOTROPIC NANOPARTICLE COMPOSITIONS AND METHODS” (Buckyol Limited, priority 2017, published 2021).

The conditions of this data set: C60(OH)8 with OH-groups forming a compact island.

For octa-hydroxylated fullerene [C60(OH)8], the hydration energy was −224 kJ per mol.
